The record followed here is patent US20150218173A1, “SUBSTITUTED INDAZOL-PYRROLOPYRIMIDINES USEFUL IN THE TREATMENT OF HYPERFOLIFERATIVE DISORDERS” (BAYER PHARMA AKTIENGESELLSCHAFT, priority 2012, published 2015).

The IC50 is the concentration that inhibits the measured activity by half.

In the experiment the target is T1, human full-length MKNK1 (Homo sapiens, UniProt Q9BUB5, T385D).
T1 construct: GST (N); purchased Carna Biosciences 02-145; host or cells: insect cells (baculovirus expression system)
T1 sequence (Q9BUB5 1-424 isoform Q9BUB5-2 T344D): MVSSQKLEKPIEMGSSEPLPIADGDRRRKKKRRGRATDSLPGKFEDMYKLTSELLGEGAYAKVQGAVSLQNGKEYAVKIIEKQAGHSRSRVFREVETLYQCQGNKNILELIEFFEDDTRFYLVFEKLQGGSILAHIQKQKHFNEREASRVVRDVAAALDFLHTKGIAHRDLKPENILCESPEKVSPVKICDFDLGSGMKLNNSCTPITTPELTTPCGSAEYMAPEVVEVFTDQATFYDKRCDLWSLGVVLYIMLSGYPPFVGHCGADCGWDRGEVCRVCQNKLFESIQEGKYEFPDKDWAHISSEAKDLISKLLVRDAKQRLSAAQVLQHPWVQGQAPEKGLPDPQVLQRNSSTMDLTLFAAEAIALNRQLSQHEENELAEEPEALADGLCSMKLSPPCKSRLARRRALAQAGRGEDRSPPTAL
The experiment is described as follows: MKNK1 kinase high ATP assay (TR-FRET). It counts as biochemical. The following applies: high ATP (2 mM final), 15 min preincubation with enzyme. How it is done: MKNK1-inhibitory activity at high ATP of compounds of the present invention after their preincubation with MKNK1 was quantified employing the TR-FRET-based MKNK1 high ATP assay as described in the following paragraphs.
A recombinant fusion protein of Glutathione-S-Transferase (GST, N-terminally) and human full-length MKNK1 (amino acids 1-424 and T344D of accession number BAA 19885.1), expressed in insect cells using baculovirus expression system and purified via glutathione sepharose affinity chromatography, was purchased from Carna Biosciences (product no 02-145) and used as enzyme. As substrate for the kinase reaction the biotinylated peptide biotin-Ahx-IKKRKLTRRKSLKG (C-terminus in amide form) was used, which can be purchased e.g. from the company Biosyntan (Berlin-Buch, Germany).
For the assay 50 nL of a 100 fold concentrated solution of the test compound in DMSO was pipetted into a black low volume 384 well microtiter plate (Greiner Bio-One, Frickenhausen, Germany), 2 μL of a solution of MKNK1 in aqueous assay buffer [50 mM HEPES pH 7.5, 5 mM MgCl2, 1.0 mM dithiothreitol, 0.005% (v/v) Nonidet-P40 (Sigma)] was added and the mixture was incubated for 15 min at 22° C. to allow pre-binding of the test compounds to the enzyme before the start of the kinase reaction. Then the kinase reaction was started by the addition of 3 μL of a solution of adenosine-tri-phosphate (ATP, 3.3 mM=>final conc. in the 5 μL assay volume is 2 mM) and substrate (0.1 μM=>final conc. in the 5 μL assay volume is 0.06 μM) in assay buffer and the resulting mixture was incubated for a reaction time of 30 min at 22° C. The concentration of MKNK1 was adjusted depending of the activity of the enzyme lot and was chosen appropriate to have the assay in the linear range, typical concentrations were in the range of 0.003 μg/mL. The reaction was stopped by the addition of 5 μL of a solution of TR-FRET detection reagents (5 nM streptavidine-XL665 [Cisbio Bioassays, Codolet, France] and 1 nM anti-ribosomal protein S6 (pSer236)-antibody from Invitrogen [#44921G] and 1 nM LANCE EU-W1024 labeled ProteinG [Perkin-Elmer, product no. AD0071]) in an aqueous EDTA-solution (100 mM EDTA, 0.1% (w/v) bovine serum albumin in 50 mM HEPES pH 7.5).
The resulting mixture was incubated for 1 h at 22° C. to allow the formation of complex between the phosphorylated biotinylated peptide and the detection reagents. Subsequently the amount of phosphorylated substrate was evaluated by measurement of the resonance energy transfer from the Eu-chelate to the streptavidine-XL. Therefore, the fluorescence emissions at 620 nm and 665 nm after excitation at 350 nm were measured in a TR-FRET reader, e.g. a Rubystar (BMG Labtechnologies, Offenburg, Germany) or a Viewlux (Perkin-Elmer). The ratio of the emissions at 665 nm and at […] was taken as the measure for the amount of phosphorylated substrate. The data were normalised (enzyme reaction without inhibitor=0% inhibition, all other assay components but no enzyme=100% inhibition).
On the technique in general: TR-FRET usually uses a lanthanide donor and a delayed reading to cut background.
Consider `C1=C(c2cc3c(Nc4ccc5[nH]ncc5c4)ncnc3[nH]2)CCOC1` [Example 16, 6-(3,6-Dihydro-2H-pyran-4-yl)-N-(1H-indazol-5-yl)-7H-pyrrolo[2,3-d]pyrimidin-4-amine], for which the half-maximal inhibitory concentration (IC50) came to 0.002 µM.

Take `Clc1cc2c(Nc3ccc4[nH]ncc4c3)ncnc2[nH]1` [Example 28, 6-Chloro-N-(1H-indazol-5-yl)-7H-pyrrolo[2,3-d]pyrimidin-4-amine]: the IC50 was 0.032 µM. The value for `Cc1cc2c(Nc3ccc4[nH]ncc4c3)ncnc2[nH]1` [Example 7, N-(1H-Indazol-5-yl)-6-methyl-7H-pyrrolo[2,3-d]pyrimidin-4-amine] was 0.031 µM. With `c1nc(Nc2ccc3[nH]ncc3c2)c2cc(C3CCOCC3)[nH]c2n1` [Example 24, N-(1H-Indazol-5-yl)-6-(tetrahydro-2H-pyran-4-yl)-7H-pyrrolo[2,3-d]pyrimidin-4-amine] the figure was 0.029 µM; with `CCOC(=O)c1[nH]c2ncnc(Nc3ccc4[nH]ncc4c3)c2c1Br` [Example 30, Ethyl 5-bromo-4-(1H-indazol-5-ylamino)-7H-pyrrolo[2,3-d]pyrimidine-6-carboxylate], 0.003 µM.

In the case of `c1ccc(-c2c[nH]c3ncnc(Nc4ccc5[nH]ncc5c4)c23)cc1` [Example 15, N-(1H-Indazol-5-yl)-5-phenyl-7H-pyrrolo[2,3-d]pyrimidin-4-amine], the half-maximal inhibitory concentration (IC50) is 0.016 µM. The compound `CN1CCN(C(=O)c2cc3c(Nc4ccc5[nH]ncc5c4)ncnc3[nH]2)CC1` [Example 23, [4-(1H-Indazol-5-ylamino)-7H-pyrrolo[2,3-d]pyrimidin-6-yl](4-methylpiperazin-1-yl)methanone] had an IC50 of 0.009 µM. For the compound `c1cncc(-c2c[nH]c3ncnc(Nc4ccc5[nH]ncc5c4)c23)c1` [Example 13, N-(1H-Indazol-5-yl)-5-(pyridin-3-yl)-7H-pyrrolo[2,3-d]pyrimidin-4-amine], the IC50 is 0.009 µM.

Compound `CN(C)CCCNC(=O)c1cc2c(Nc3ccc4[nH]ncc4c3)ncnc2[nH]1` [Example 27, N-[3-(Dimethylamino)propyl]-4-(1H-indazol-5-ylamino)-7H-pyrrolo[2,3-d]pyrimidine-6-carboxamide] registered an IC50 of 0.005 µM.

As to `Cc1c(C(=O)O)[nH]c2ncnc(Nc3ccc4[nH]ncc4c3)c12` [Example 32, 4-(1H-Indazol-5-ylamino)-5-methyl-7H-pyrrolo[2,3-d]pyrimidine-6-carboxylic acid], the IC50 turned out to be 0.018 µM.

Compound `O=S(=O)(c1ccccc1)c1cc2c(Nc3ccc4[nH]ncc4c3)ncnc2[nH]1` [Example 36, N-(1H-Indazol-5-yl)-6-(phenylsulfonyl)-7H-pyrrolo[2,3-d]pyrimidin-4-amine] had an IC50 of 0.001 µM. Take `C1=C(c2c[nH]c3ncnc(Nc4ccc5[nH]ncc5c4)c23)CCOC1` [Example 17, 5-(3,6-Dihydro-2H-pyran-4-yl)-N-(1H-indazol-5-yl)-7H-pyrrolo[2,3-d]pyrimidin-4-amine]: the IC50 is 0.012 µM.

The compound `CCOC(=O)c1[nH]c2ncnc(Nc3ccc4[nH]ncc4c3)c2c1C` [Example 29, Ethyl 4-(1H-indazol-5-ylamino)-5-methyl-7H-pyrrolo[2,3-d]pyrimidine-6-carboxylate] gave an IC50 of 0.013 µM. `CCc1[nH]c2ncnc(Nc3ccc4[nH]ncc4c3)c2c1C` [Example 1, 6-Ethyl-N-(1H-indazol-5-yl)-5-methyl-7H-pyrrolo[2,3-d]pyrimidin-4-amine]: the midpoint of inhibition, the IC50, lay at 0.058 µM.

`O=C(c1[nH]c2ncnc(Nc3ccc4[nH]ncc4c3)c2c1Br)N1CCCCC1` [Example 45, [5-Bromo-4-(1H-indazol-5-ylamino)-7H-pyrrolo[2,3-d]pyrimidin-6-yl](piperidin-1-yl)methanone]: the IC50 was 0.045 µM. The value for `Fc1ccc(-c2c[nH]c3ncnc(Nc4ccc5[nH]ncc5c4)c23)cc1` [Example 12, 5-(4-Fluorophenyl)-N-(1H-indazol-5-yl)-7H-pyrrolo[2,3-d]pyrimidin-4-amine] was 0.016 µM; that for `FC(F)(F)c1c[nH]c2ncnc(Nc3ccc4[nH]ncc4c3)c12` [Example 35, N-(1H-Indazol-5-yl)-5-(trifluoromethyl)-7H-pyrrolo[2,3-d]pyrimidin-4-amine] was 0.037 µM. With `O=C(c1cc2c(Nc3ccc4[nH]ncc4c3)ncnc2[nH]1)N1CCCC1` [Example 21, [4-(1H-Indazol-5-ylamino)-7H-pyrrolo[2,3-d]pyrimidin-6-yl](pyrrolidin-1-yl)methanone] the figure was 0.008 µM. On to `O=C(NCCO)c1cc2c(Nc3ccc4[nH]ncc4c3)ncnc2[nH]1` [Example 20, N-(2-Hydroxyethyl)-4-(1H-indazol-5-ylamino)-7H-pyrrolo[2,3-d]pyrimidine-6-carboxamide], for which the IC50 came out at 0.009 µM.

`c1ccc(CCc2cc3c(Nc4ccc5[nH]ncc5c4)ncnc3[nH]2)cc1` [Example 26, N-(1H-Indazol-5-yl)-6-(2-phenylethyl)-7H-pyrrolo[2,3-d]pyrimidin-4-amine] gave an IC50 of 0.08 µM.

Compound `CCCCNC(=O)c1cc2c(Nc3ccc4[nH]ncc4c3)ncnc2[nH]1` [Example 22, N-Butyl-4-(1H-indazol-5-ylamino)-7H-pyrrolo[2,3-d]pyrimidine-6-carboxamide] returned an IC50 of 0.005 µM. Turning to `OCc1c[nH]c2ncnc(Nc3ccc4[nH]ncc4c3)c12` [Example 41, [4-(1H-indazol-5-ylamino)-7H-pyrrolo[2,3-d]pyrimidin-5-yl]methanol], the IC50 was determined as 0.037 µM. `C[C@H]1COCCN1C(=O)c1[nH]c2ncnc(Nc3ccc4[nH]ncc4c3)c2c1Br` [Example 43, [5-Bromo-4-(1H-indazol-5-ylamino)-7H-pyrrolo[2,3-d]pyrimidin-6-yl][(3S)-3-methylmorpholin-4-yl]methanone] registered an IC50 of 0.075 µM. With `CC(C)Cc1[nH]c2ncnc(Nc3ccc4[nH]ncc4c3)c2c1C(C)C` [Example 39, N-(1H-Indazol-5-yl)-6-(2-methylpropyl)-5-(propan-2-yl)-7H-pyrrolo[2,3-d]pyrimidin-4-amine] the figure was 0.021 µM; with `CS(=O)(=O)c1cc2c(Nc3ccc4[nH]ncc4c3)ncnc2[nH]1` [Example 5, N-(1H-Indazol-5-yl)-6-(methylsulfonyl)-7H-pyrrolo[2,3-d]pyrimidin-4-amine], 0.011 µM. With `C=C(C)c1cc2c(Nc3ccc4[nH]ncc4c3)ncnc2[nH]1` [Example 8, N-(1H-indazol-5-yl)-6-(prop-1-en-2-yl)-7H-pyrrolo[2,3-d]pyrimidin-4-amine] the figure was 0.004 µM; with `Brc1c[nH]c2ncnc(Nc3ccc4[nH]ncc4c3)c12` [Example 2, 5-Bromo-N-(1H-indazol-5-yl)-7H-pyrrolo[2,3-d]pyrimidin-4-amine], 0.01 µM. The value for `Cc1ccc(S(=O)(=O)c2cc3c(Nc4ccc5[nH]ncc5c4)ncnc3[nH]2)cc1` [Example 37, N-(1H-Indazol-5-yl)-6-[(4-methylphenyl)sulfonyl]-7H-pyrrolo[2,3-d]pyrimidin-4-amine] was 0.002 µM; that for `O=C(c1[nH]c2ncnc(Nc3ccc4[nH]ncc4c3)c2c1Br)N1CCOCC1` [Example 44, [5-Bromo-4-(1H-indazol-5-ylamino)-7H-pyrrolo[2,3-d]pyrimidin-6-yl](morpholin-4-yl)methanone] was 0.048 µM.

Compound `CCCc1[nH]c2ncnc(Nc3ccc4[nH]ncc4c3)c2c1CC` [Example 34, 5-Ethyl-N-(1H-indazol-5-yl)-6-propyl-7H-pyrrolo[2,3-d]pyrimidin-4-amine] yielded an IC50 of 0.013 µM. The value for `C[C@@H]1COCCN1C(=O)c1[nH]c2ncnc(Nc3ccc4[nH]ncc4c3)c2c1Br` [Example 42, [5-Bromo-4-(1H-indazol-5-ylamino)-7H-pyrrolo[2,3-d]pyrimidin-6-yl][(3R)-3-methylmorpholin-4-yl]methanone] was 0.058 µM. With `O=S(=O)(c1ccc(Cl)cc1)c1cc2c(Nc3ccc4[nH]ncc4c3)ncnc2[nH]1` [Example 38, 6-[(4-Chlorophenyl)sulfonyl]-N-(1H-indazol-5-yl)-7H-pyrrolo[2,3-d]pyrimidin-4-amine] the figure was 0.001 µM.
